Results taken from BindingDB's records for doi:10.1021/jm00164a009 (Research Biochemicals, 1990).

Legend:
[1] = Ability to inhibit [3H]-SCH- 23390 binding to Dopamine receptor D1 of canine striatal membranes
[2] = as above; remark: listed apart in the source

| SMILES | Kd [1] [µM] | Ki [2] [µM] |
| --- | --- | --- |
| CN1CCc2cc(I)c(O)cc2[C@H](c2ccc(N=[N+]=[N-])cc2)C1 | 0.00028 | – |
| CN1CCc2cc(I)c(O)cc2[C@@H](c2ccc(N=[N+]=[N-])cc2)C1 | – | 0.028 |
